Drawing on PubChem BioAssay AID504765 (Sanford-Burnham Center for Chemical Genomics, 2011), this text covers IC50 for 100 compounds.

Active and inactive are the calls of the source. The rule behind the calls is not given here.

The test has as its target glucose-6-phosphate dehydrogenase-6-phosphogluconolactonase (Plasmodium falciparum 3D7). In words: concentration-dependent PfGluPho enzyme inhibition – biochemical, fluorescence intensity, dose response (AID 504765). The settings on record: Recombinant PfG6PD enzyme, fluorescence intensity (NADPH).
The IC50 is the point on the concentration scale where inhibition reaches its midpoint. As for `CCn1c(=O)n(CC)c2cc(N3CCCC3)c(NC(=O)c3cccc(C)c3)cc21`, the IC50 entry is “inactive”. Regarding `COc1ccc(N=C2C(=S)N(c3ccc(OC)cc3)C(=NS(=O)(=O)c3ccccc3)N2c2ccccc2)cc1`, the IC50 is 2.38 µM.

With `COc1c(O)ccc2c1CN1CCc3cc4c(cc3C1C2)OCO4` (stereo not given), the half-inhibitory concentration (IC50) is 15.5 µM.

Turning to `Cc1ccc(/C=C/C(=O)NCC2COc3ccccc3O2)o1` (stereo not given), the IC50 was 3.66 µM. Under `O=C(CCC(=O)OCC(=O)c1ccc([N+](=O)[O-])cc1)Nc1ccccc1Cl` stands 6.61 µM; under `Cc1c(N=C2C=C(Br)C(=O)C(Br)=C2)c(=O)n(-c2ccccc2)n1C`, 7.32 µM; under `Cc1ccc(-c2c(C(=O)N/N=C/c3ccc(C)o3)nnn2-c2nonc2N)cc1`, 1.43 µM.

In the case of `COc1c(O)c(O)c2oc(-c3ccccc3)cc(=O)c2c1OC`, the IC50 is 10.6 µM. The result for `O=c1c2ccccc2sn1-c1cc(S(=O)(=O)N2CCOCC2)ccc1N1CCCC1` reads 1.08 µM. Under `O=c1[nH]c2ccc(NCc3ccccc3OCc3ccc(Cl)cc3)cc2[nH]1` stands > 80 µM (inactive); under `O=S(=O)(Nc1c(O)ccc2ccccc12)c1ccccc1`, 4.49 µM. Consider `CCC(C)c1ccccc1OCCn1ccnc1` (stereo not given), for which the IC50 was 3.39 µM. The result for `COc1cc(NCCCn2cnc(C(=O)Nc3ccc(C)c(C)c3)n2)cc(OC)c1OC` reads > 80 µM (inactive). Under `COc1cc(N=Cc2c(CO)cnc(C)c2O)cc(OC)c1OC` stands 19.6 µM. Under `Cn1c(=O)[nH]c(=O)c2c1[nH]c(=S)n2CCCc1ccccc1` stands “inactive”. For the compound `CCn1c(SCc2nc3scc(-c4ccccc4)c3c(=O)[nH]2)nnc1-c1cccs1`, the IC50 is 17.3 µM. The result for `COc1cc(/C=C2\SC(c3ccc(C)cc3)=NC2=O)cc(OC)c1O` reads 9.38 µM; that for `COc1ccc(NS(=O)(=O)c2ccc(N3CCCC3)c(NC(=S)Nc3cccc(C)c3C)c2)cc1`, “inactive”; that for `COc1cc(C(=O)O/N=C2/C=C(C)C(=O)C=C2C)cc(OC)c1OC`, 11.6 µM.

With `CC1CCc2c(nc3sc4c(c3c2N)CCCC4)C1` (stereo not given), the IC50 is 14.9 µM.

For the compound `CCOC(=O)C1CCCN(C(=O)Cn2sc3nc(C)cc(C)c3c2=O)C1` (stereo not given), the half-maximal inhibitory concentration (IC50) was 3.15 µM. Regarding `Cc1cc(C)c2c(=O)n(CC(=O)Nc3cccc(Cl)c3C)sc2n1`, the half-inhibitory concentration (IC50) was 5.51 µM. With `CSc1nnc(NC(=O)c2ccc3c(c2)OCO3)s1`, the IC50 was 2.82 µM. Under `Cc1ccccc1OCC(=O)NCC(=O)OCC(=O)c1ccc([N+](=O)[O-])cc1` stands 17.2 µM. Under `C=CCOc1ccc(CNc2ccc3[nH]c(=O)[nH]c3c2)cc1OC` stands 6.61 µM.

With `O=C(NC1=CC(=O)c2ccccc2C1=O)c1ccccc1`, the concentration for half-maximal inhibition (IC50) is 2.53 µM.

In the case of `CCN1CCCC1CNC(=O)c1ccc2c(c1)NC(=O)/C(=C\c1ccc(C)cc1)S2` (stereo not given), the IC50 is 3.16 µM. The result for `Nc1c(O)cccc1C(=O)O` reads 1.44 µM.

`CCN(CC)c1ccc(C(=C2C=CC(=[N+](CC)CC)C=C2)c2ccccc2)cc1`: the IC50 is 11.7 µM. Under `CN1/C(=C\C(=O)c2cccs2)Sc2ccccc21` stands 7.44 µM. As to `O=[N+]([O-])c1ccc2c(c1)-c1ccccc1C2O` (stereo not given), the concentration for half-maximal inhibition (IC50) was 2.46 µM. The result for `C[C@]12CC[C@@H]3c4ccc(O)c(O)c4CC[C@H]3[C@@H]1CC[C@@H]2O` reads 4.02 µM; that for `Nc1ccc(N(CCO)CCO)cc1`, 4.71 µM; that for `COc1ccc(NC2CCCN(Cc3cccc4cnccc34)C2)cc1OC` (stereo not given), “inactive”. Under `Cc1cccc(NC2=C(NC(=O)c3ccccc3)C(=O)c3ccccc3C2=O)c1` stands 10.6 µM; under `CN1CCc2cc(O)cc3c2[C@H]1Cc1ccc(O)c(O)c1-3`, 15 µM. Under `CCC(=O)OCCNc1cc(Sc2nc3ccccc3s2)c2nonc2c1[N+](=O)[O-]` stands 16.1 µM. Take `CC(=O)Nc1cc(OC(C)=O)c2nonc2c1OC(C)=O`: the IC50 is 11.9 µM. The result for `[O-][N+](=Cc1ccccc1)c1ccc(Cl)cc1` reads 3.34 µM.

For the compound `Cc1ccc(NC(=O)c2ccc(Cl)c(N3C(=O)C=CC3=O)c2)cc1`, the concentration for half-maximal inhibition (IC50) was 7.52 µM. Turning to `Cc1cccc(C2(c3cccc(C)c3)CC2C(=O)Nc2ccc([N+](=O)[O-])cc2O)c1` (stereo not given), the IC50 is 13.2 µM. With `Cc1noc(C(=O)Nc2sc3c(c2C#N)CCC3)c1Cl`, the half-inhibitory concentration (IC50) is 4.83 µM. Consider `O=C(Nc1nnc(S(=O)(=O)N2CCCCCC2)s1)c1cccc(Br)c1`, for which the half-maximal inhibitory concentration (IC50) was 15.1 µM. The result for `Cc1cc(NC(=O)c2oc3ccccc3c2C)ccc1-n1cnnn1` reads 4.54 µM; that for `COc1cc(N=c2ssnc2Cl)cc(OC)c1`, 13.2 µM.

Regarding `CC(C)Nc1ccc(Nc2ccccc2)cc1`, the IC50 was 12.1 µM. Turning to `Cc1ccc(-c2csc(NC(=O)c3ccc(Br)cc3)c2C(=O)O)cc1`, the concentration for half-maximal inhibition (IC50) is 6.25 µM. Under `O=C(Nc1nnc(S(=O)(=O)N2CCOCC2)s1)c1ccc(F)cc1` stands 11.4 µM; under `O=C(Sc1n[nH]c(=O)[nH]c1=O)c1ccccc1`, 3.33 µM. The result for `Cn1c2ccccc2c2ccc3c(c21)C(=O)C=CC3=O` reads > 80 µM (inactive). For `Cc1ccc2nc(SCC(=O)N/N=C/c3ccco3)cc(C)c2c1`, the IC50 is 10.3 µM.

Take `Cc1ccc(S(=O)c2ccc([N+](=O)[O-])c3nonc23)cc1` (stereo not given): the IC50 was 8.19 µM.

On to `CCc1ccc(S(=O)(=O)Nc2cc(SCC(=O)O)c(O)c3ccccc23)cc1`, for which the concentration for half-maximal inhibition (IC50) is 5.63 µM. The result for `COc1ccc(S(=O)(=O)/N=C2\C=C(Nc3ccc(O)cc3)C(=O)c3ccccc32)cc1` reads “inactive”. Turning to `Cc1[nH]c2ccccc2c1/C=N/Nc1nncn1N`, the IC50 is 5.61 µM. Under `CNS(=O)(=O)c1ccc(-c2ccc(C=C3C(=O)NC(=O)NC3=O)o2)cc1` stands 8.75 µM; under `O=C1CCN(c2ccccc2)N1`, 1.34 µM. The result for `CCOC(=O)c1ccc(/[N+]([O-])=C/c2ccccc2)cc1` reads 2.69 µM. Under `CN(CCO)c1cc(Sc2nc3ccccc3s2)c2nonc2c1[N+](=O)[O-]` stands 11.1 µM; under `COc1ccc2nc3cc(Cl)ccc3c(Nc3ccc(O)c(CN4CCN(C)CC4)c3)c2c1`, “inactive”. As for `CC(NC(=O)c1sc2cc([N+](=O)[O-])ccc2c1Cl)C(C)(C)C` (stereo not given), the IC50 was 18.5 µM. The result for `O=C(CNC(=O)c1cccs1)OCC(=O)c1ccc([N+](=O)[O-])cc1` reads 13.9 µM; that for `CC1CCc2[nH]c3ccc(C(=O)N(C)CC(=O)Nc4ccccc4C(F)(F)F)cc3c2C1` (stereo not given), 5.61 µM. Under `COc1cc(N=c2ssnc2Cl)c(OC)cc1Cl` stands 13.5 µM; under `COc1cc(/C=C2\SC(c3ccc(C)cc3)=NC2=O)ccc1O`, 8.7 µM; under `C=CCSc1nc2sc3c(c2c(=O)n1CC)CCc1ccccc1-3`, “inactive”. Under `CCOC(=O)Cc1cc(=O)n2[nH]c(C(C)(C)C)cc2n1` stands 7.04 µM; under `c1ccc(SSc2ccccn2)nc1`, 9.82 µM; under `O=C(CNC(=O)c1ccco1)OCC(=O)c1ccc([N+](=O)[O-])cc1`, 19.1 µM. For `COc1cc(NCCCn2ccc(NC(=O)OCc3ccccc3)nc2=O)cc(OC)c1OC`, the IC50 is 17.6 µM.

On to `Cc1ccc(S(=O)(=O)N(C(=O)c2ccncc2)c2ccc(OC(=O)c3ccncc3)c3ccccc23)cc1`, for which the IC50 was 17.7 µM. For `O=C(CCSCCC(=O)NN=Cc1ccccc1)NN=Cc1ccccc1`, the concentration for half-maximal inhibition (IC50) is 7.76 µM. Under `CN1CCN(C(=O)c2sc(=S)n(-c3ccccc3)c2N)CC1` stands 7.25 µM. With `CN(C)c1ccc(C=c2c3cc(O)ccc3n3c2cc(-c2ccccc2)[n+]3C)cc1`, the IC50 was 9.89 µM. The result for `O=C(O)CSc1cc(NS(=O)(=O)c2cccc([N+](=O)[O-])c2)c2ccccc2c1O` reads 1.34 µM.

`CCC(C)N(CCNC(=O)c1ccc2c(c1)NC(=O)c1ccccc1S2)C1CCCCC1` (stereo not given): the half-inhibitory concentration (IC50) was 6.48 µM. For `COC1=CC(=O)C=C(OC)C1(O)CC(C)=O`, the 50% inhibitory concentration (IC50) was 5.91 µM. Under `Cc1nn(-c2ccccc2)c(Cl)c1/C=N/Nc1nc2ccccc2n1C` stands 13.3 µM; under `O=C(CNC(=O)c1ccccc1)NCC(=O)OCC(=O)c1ccc([N+](=O)[O-])cc1`, “inactive”; under `CCN1CCN(C(=S)c2ccc(Cl)c(Cl)c2)CC1`, “inactive”. Under `Cn1c(=O)c2[nH]c(-c3ccccc3)c(O)c2n(C)c1=O` stands 9.54 µM. Regarding `Cc1cc(C)c2c(=O)n(CC(=O)NC3CCCC3)sc2n1`, the IC50 was 1.97 µM. With `O=c1c2cc(F)ccc2sn1-c1ccccc1Cl`, the IC50 is 4.29 µM. Take `Cc1cc(C)c2c(=O)n(CC(=O)Nc3ccc(Cl)cc3)sc2n1`: the half-inhibitory concentration (IC50) is 2.51 µM.

Take `CN(C)c1ccc(/C=C/c2ccc3c4ccccc4ccc3[n+]2-c2ccccc2)cc1`: the IC50 entry was “inactive”.

Take `CCCN1CCc2cccc3c2[C@H]1Cc1ccc(O)c(O)c1-3`: the IC50 was 15 µM. The result for `COc1cc(-c2nnc3n2N=C(c2ccccc2)CS3)cc(OC)c1OC` reads 3.88 µM. Under `CN1CCc2cccc3c2[C@H]1Cc1ccc(O)c(O)c1-3` stands 8.4 µM; under `Cc1cc(N=NC(=O)c2ccccc2O)c2ccccc2c1O`, “inactive”. For `Cc1c(C(=O)N(Cc2ccccc2Cl)C2CCS(=O)(=O)C2)oc2ccccc12` (stereo not given), the IC50 is 4.36 µM. The result for `Oc1ccc(-c2cn3c(n2)SCC3)cc1O` reads 11.5 µM; that for `CCCCC1C(=O)N(c2ccccc2)N(c2ccc(O)cc2)C1=O` (stereo not given), 12.5 µM.

Turning to `Cc1cc(C)c2sc(NC(=O)C3=COCCO3)nc2c1`, the IC50 is 11 µM. The result for `O=C(O)c1ccc(-n2c(-c3cc(-c4ccco4)[nH]n3)n[nH]c2=S)cc1` reads “inactive”. The result for `O=C(Nc1ccccc1C(=O)N/N=C/c1ccco1)c1ccccc1Cl` reads 10.6 µM; that for `COc1cc(-c2cc(OC)c(O)c(OC)c2)cc(OC)c1O`, 8.29 µM. For `CN(C)c1ccc(C=c2c3ccccc3n3c2c2ccccc2[n+]3C)cc1`, the IC50 is 16 µM.

As for `CCOC(=O)Nc1ccc(NCc2ccc(F)cc2)nc1N`, the half-maximal inhibitory concentration (IC50) is 3 µM.

Turning to `C[C@H](NC(=O)c1cc2c(cn1)[nH]c1ccccc12)C(=O)O`, the IC50 result is “inactive”. The result for `O=C(Nc1nnc(S(=O)(=O)N2CCOCC2)s1)c1cccc(Br)c1` reads 5.58 µM.
